Data on 1 molecule can be found in US11247970B2, “Selective inhibition of gluconeogenic activity” (Dana-Farber Cancer Institute, Inc., priority 2017, dated 2022).

One series concerns HFD-fed mice. In words: Hyperinsulinemic-euglycemic clamp. The format is in vivo. On the procedure: Hyperinsulinemic-euglycemic clamps were performed on mice fed HFD for 16 weeks as previously described with minor modifications (Jurczak et al., 2012). Briefly, an indwelling catheter was surgically implanted in the right jugular vein 7 days prior to study. Three days before study, mice were injected with SR-18292 and vehicle control following the same protocol described above. Mice were fasted overnight prior to clamps and then infused with a fixed amount of insulin [4 mU/(kg-min)] and a variable amount of 20% dextrose to maintain euglycemia. [3-H]glucose was included in the infusate to allow for the calculation of whole-body rates of glucose metabolism.

Another series has as its system HFD fed mice. Kind of series: Chronic 14 day treatment of HFD mice. The format is in vivo. Here is the method: FIG. 57 is a plot monitoring body weight over a period of days. Mice fed HFD for 6 weeks were injected daily with SR-18292 for a total of 14 days and body weight was monitored during the treatment.
FIG. 58 is a series of bar graphs monitoring blood glucose. Mice were fasted at day 3 and 13 and fasting blood glucose was measured at day 4 and 14. Fed blood glucose was also measured at day 10. n=10, *P<0.05.
In addition, liver toxicity, as measured by serum levels of alanine transaminase (ALT), aspartate aminotransferase (AST), lactate dehydrogenase (LDH) and bilirubin, was not observed in mice treated with SR-18292 (Table 6). […] To assess the contribution of PGC-1α in mediating the in vivo effects of SR-18292, hepatic PGC-1α in Lep^ob/ob mice was depleted using shRNA and observed a significant reduction in basal blood glucose concentrations compared to control. […] To fully assess the effects of SR-18292 on whole body glucose homeostasis and insulin resistance, a glucose tolerance test (GTT) and insulin tolerance test (ITT) were performed following the same protocol used to determine fasting blood glucose. […] As expected, insulin levels after GTT were lower in the treated group (FIG. 51). […] To test if SR-18292 chronic treatment will cause similar anti-diabetic effects, mice were treated for a period of 14 days.

The test system of the next series is ob/ob mice. Kind of series: Fasting glycemia and liver lipid in leptin deficient ob/ob mice. The format is in vivo. The note with it: diabetic leptin deficient ob/ob mice.
In another series the target is T1, PGC-1α (Mus musculus, UniProt O70343).
T1 sequence (O70343 1-797): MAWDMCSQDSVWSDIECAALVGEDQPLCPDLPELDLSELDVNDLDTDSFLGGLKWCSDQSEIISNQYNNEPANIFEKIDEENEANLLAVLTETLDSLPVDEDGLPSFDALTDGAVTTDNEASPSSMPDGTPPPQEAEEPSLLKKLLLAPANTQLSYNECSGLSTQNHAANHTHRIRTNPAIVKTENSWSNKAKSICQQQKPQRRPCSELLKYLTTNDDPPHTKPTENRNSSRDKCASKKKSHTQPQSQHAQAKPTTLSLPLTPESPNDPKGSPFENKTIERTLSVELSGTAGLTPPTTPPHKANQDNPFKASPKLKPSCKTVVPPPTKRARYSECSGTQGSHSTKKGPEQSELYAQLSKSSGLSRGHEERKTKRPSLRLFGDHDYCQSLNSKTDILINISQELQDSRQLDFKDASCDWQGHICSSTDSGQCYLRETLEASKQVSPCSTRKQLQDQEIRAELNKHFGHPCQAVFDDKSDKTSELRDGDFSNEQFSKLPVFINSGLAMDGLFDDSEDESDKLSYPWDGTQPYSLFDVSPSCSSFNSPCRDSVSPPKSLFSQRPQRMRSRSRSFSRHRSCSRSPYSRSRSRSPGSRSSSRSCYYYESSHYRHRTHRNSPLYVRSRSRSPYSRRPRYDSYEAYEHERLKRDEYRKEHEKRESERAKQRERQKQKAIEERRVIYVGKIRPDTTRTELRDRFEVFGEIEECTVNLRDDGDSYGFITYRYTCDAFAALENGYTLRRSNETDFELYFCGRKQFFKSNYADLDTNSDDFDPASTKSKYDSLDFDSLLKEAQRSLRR
In words: Western blot of PGC-1α acetylation in primary hepatocytes. Format: cell-based. Also noted: expressed in transfected cells; host or cells: primary hepatocytes of C57BL/6 mice infected with Ad-PGC-1α and Ad-GCN5. On the procedure: For measurement of acetylation, gene expression and glucose production SR-18292 ([…]) was added to cells overnight and fresh compound was added the following day for additional 3 h before collecting the cells (for total of ˜18 h treatment). Where insulin and glucagon stimulation were performed, the medium was changed to starvation medium (DMEM, 0.2% BSA, 2 mM sodium pyruvate, and 1% penicillin/streptomycin) with fresh compound for the last 3 h and cells were stimulated with either 100 nM insulin or 200 nM glucagon for an extra 1.5 h. For glucose measurements following PGC-1α over expression cells were incubated for the last 3 h in glucose-free medium (phenol-red/glucose free DMEM, 0.2% BSA, 2 mM sodium pyruvate and 20 mM sodium lactate or 10 mM glycerol in case glycerol was used as substrate). For glucose measurements following glucagon stimulation cells were incubated for the last 4 h in the same glucose-free medium that also contained glucagon (200 nM). The glucose level in the medium was measured using a glucose assay kit from Eton Bioscience Inc. by adding […] of assay buffer to […] of medium followed by 15 min incubation at 37° C. Absorbance was measured at 490 nm.
For PGC-1α acetylation detection in hepatocytes cells were infected with Ad-PGC-1α and Ad-GCN5. […]

For `Cc1ccc(CN(CC(O)COc2cccc3[nH]ccc23)C(C)(C)C)cc1` (centres unmarked) [SR-18292, 1-((1H-indol-4-yl)oxy)-3-(tert-butyl(4-methylbenzyl)amino)propan-2-ol], in the series on HFD-fed mice (HFD 16 weeks), the “glucose infusion rate vs vehicle” value is on record as “substantially higher” and the peripheral glucose uptake entry is recorded as “not due to improved peripheral glucose uptake”. Also, the endogenous glucose production entry in the series with HFD-fed mice (basal and clamp conditions) is “reduced endogenous glucose production”. Further, in the series with HFD fed mice (14 days daily treatment), the “ability to reduce blood glucose” value was “sustained” and the body weight entry is “without resulting in changes in body weight”. For the same molecule, the “toxicity by serum ALT and AST, H&E staining of liver, proinflammatory genes” value in the series with HFD fed mice (14 days treatment) is “did not cause any signs of toxicity”. Besides, in the series with HFD fed mice (after 14 days, n=10), the “H&E staining of liver slices assessed by pathologist” value is “no sign of toxicity was observed”; the “liver triglycerides and cholesterol levels” value was “not altered”; the “serum ALT and AST levels” value is on record as “not altered”; the “serum lactate, β-hydroxybutyrate and cholesterol levels” value was “not altered”. Moreover, in the series on ob/ob mice, the fasting glycemia result is given as “improved fasting glycemia” and the “lipid accumulation in liver” value is recorded as “without altering lipid accumulation in liver”. At PGC-1α (primary hepatocytes, Ad-PGC-1α and Ad-GCN5, 18 h), the PGC-1α acetylation entry is reported as “increased PGC-1α acetylation”. For the same molecule, on PGC-1α (with Ex-527 (SIRT1 inhibitor) and Trichostatin A), the “PGC-1α acetylation in presence of deacetylase inhibitors” value is on record as “increased acetylation of PGC-1α even in the presence of Ex-527”.
